Results taken from patent publication US4073888A, “Chlorine dioxide and quaternary ammonium salts as sterilizing agents” (priority 1975, dated 1978).
“Also recorded” adds a separate entry of the source.

Tests used:
[1] = test system: Bacillus subtilis; test: Comparative Sporicidal Test, didecyl dimethyl ammonium chloride alone; type: cell-based, Bacillus subtilis 19659; details: ten minutes contact; for Number Positive, Tube 1 (original culture) / Number Positive, Tube 2 (subculture): of 10
Experimental: For further comparative purposes it was also decided to test the sporicidal activity of didecyl dimethyl ammonium chloride used alone and employing the bacteria and method described below.
Porcelain penicylinders (Fisher Scientific #7-907)
Incubation Time and Temperature
In the above Table 4, Tube 1 is the original culture and Tube 2 is the subculture of Tube 1.
The active ingredient in these tests was didecyl dimethyl ammonium chloride.
In the above Table 4, the identification of the 1% solution and 0.4% solution refers to the level of total quaternary compound being tested.

[2] = test system: spores; test: effectiveness of quaternary salts with chlorine dioxide; type: cell-based; details: for results with chlorine dioxide in the testing embodiments: employed with chlorine dioxide; for effectiveness with chlorine dioxide: used with chlorine dioxide for the purposes of the invention
[3] = test system: spores; details: cited from earlier work
[4] = solutions; cited from earlier work
[5] = test system: Bacillus subtilis; test: Comparative Sporicidal Test, chlorine dioxide alone; details: dilutions 1:10 and 1:25
[6] = cited from earlier work

## CCCCCCCCCC[N+](C)(C)CCCCCCCCCC.[Cl-] [Didecyl Dimethyl Ammonium Chloride, didecyl dimethyl ammonium chloride]
[1]; 0.4% solution
  Number Positive, Tube 1 (original culture): 0
  Number Positive, Tube 2 (subculture): 10
[1]; 1% solution
  Number Positive, Tube 1 (original culture): 0
  Number Positive, Tube 2 (subculture): 9
[1]; used alone, 1% and 0.4%
  sporicidal activity (conclusion): poor sporicidal activity; also recorded: only a static effect and not a cidal effect; also recorded: not sporicidal
[2]
  results with chlorine dioxide in the testing embodiments: outstanding results
  effectiveness with chlorine dioxide: highly effective

## CCCCCCCCCCCC[N+](C)(C)CCCCCCCCCCCC.[Cl-] [Didodecyl dimethyl ammonium chloride]
[2]
  results with chlorine dioxide in the testing embodiments: outstanding results
  effectiveness with chlorine dioxide: highly effective

## CCCCCCCCCC[N+](C)(C)CCCCCCCC.[Cl-] [Octyl-decyl dimethyl ammonium chloride]
[2]
  results with chlorine dioxide in the testing embodiments: outstanding results

## CCCCCCCCCCCC[N+](C)(C)CCCCCCCC.[Cl-] [Octyl-dodecyl dimethyl ammonium chloride]
[2]
  results with chlorine dioxide in the testing embodiments: outstanding results
  effectiveness with chlorine dioxide: highly effective

## CCCCCCCCCCCCCCCC[N+](C)(C)C.[Br-] [cetyl trimethyl ammonium bromide, reference compound]
[2]
  effectiveness with chlorine dioxide: ineffective

## [O][Cl+][O-] [chlorine dioxide]
[3]; alone in aqueous solutions
  sporicidal activity: not sporicidal
[4]
  bactericidal, fungicidal, taste and odor control properties: excellent bactericidal, fungicidal, and taste and odor control properties
[5]
  outcome before 21 day observation period: failed completely
[5]; 2-12 hours contact
  sporicidal activity (conclusion): does not show satisfactory sporicidal activity; also recorded: failure as a sporicide
[5]; twelve hours contact
  sporicidal test outcome: not passed

## O=CCCCC=O [glutaraldehyde]
[3]; commercial sporicidal composition
  time required to kill spores: 10 h
[6]
  shelf-life after activation: 14 days

## CCCCCCCCCCCCCCCC[N+](C)(C)Cc1ccccc1.[Cl-] [hexadecyldimethyl benzyl ammonium chloride, reference compound]
[2]
  effectiveness with chlorine dioxide: ineffective

## CCCCCCCCCCCC(=O)OCCNC(=O)C[n+]1ccccc1 [lauric acid ester of colaminoformylmethyl pyridinium chloride, reference compound]
[2]
  effectiveness with chlorine dioxide: ineffective
